The test deals with T1, p300 HAT domain (residues 1287-1666) (Homo sapiens, UniProt Q09472).
T1 construct: The p300 HAT domain (residues 1287-1666) was expressed; His tag (N); made in house; host or cells: Escherichia coli
T1 sequence (Q09472 1287-1666): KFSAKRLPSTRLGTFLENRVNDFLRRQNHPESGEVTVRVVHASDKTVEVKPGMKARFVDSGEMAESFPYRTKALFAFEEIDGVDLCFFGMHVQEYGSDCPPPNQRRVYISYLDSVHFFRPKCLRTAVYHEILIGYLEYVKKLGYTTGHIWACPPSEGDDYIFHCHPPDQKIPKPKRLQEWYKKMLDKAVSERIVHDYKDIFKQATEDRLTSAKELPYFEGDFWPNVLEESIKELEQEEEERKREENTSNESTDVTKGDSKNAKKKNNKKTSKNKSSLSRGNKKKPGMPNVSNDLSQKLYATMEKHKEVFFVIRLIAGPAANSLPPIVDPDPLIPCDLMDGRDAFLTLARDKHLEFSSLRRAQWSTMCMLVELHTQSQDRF
The test is described as follows: P300 HAT SPA assay (scintillation proximity, acetylation of biotinylated H3(1-21) peptide). As to conditions: 6 nM p300-HAT domain; average of at least 2 replicate titrations. Format: biochemical. On the procedure:
The activity of the compounds described herein as p300/CBP HAT inhibitors may be readily determined using a scintillation proximity assay (SPA) methodology (Udenfriend, S.; Gerber, L.; Nelson, N. Scintillation Proximity Assay: A Sensitive and Continuous Isotopic Method for Monitoring Ligand/Receptor and Antigen/Antibody Interactions. Anal. Biochem. 1987, 161, 494-500).
In a typical experiment the p300 HAT inhibitory activity of the compounds described herein was determined in accordance with the following experimental method.
The p300 HAT domain (residues 1287-1666) was expressed and purified with an N-terminal His tag from Escherichia coli cells. The expressed protein was purified by Ni2+affinity, followed by anion exchange chromatography. Appropriate fractions were pooled and buffer exchanged into 20 mM Hepes pH 7.5, 150 mM NaCl, and 1 mM TCEP.
Compounds of interest solubilized in DMSO were stamped in a Greiner black 384-well plate in a 10-point duplicate dose response using an Echo 550 (Labcyte). p300-HAT domain purified in-house (aa 1287-1666) was diluted to 6 nM in reaction buffer (50 mM Tris pH 8.0, 100 mM NaCl, 1 mM DTT, 0.069 mM Brij-35, 0.1 mM EDTA, 0.1 mg/mL BSA), combined with 4.14 μM AcCoA (Sigma-Aldrich) and 0.46 μM ^3H-AcCoA (PerkinElmer), and 12.5 μL added to each well and incubated for 30 min at RT. Reactions were initiated with 12.5 μL 2 μM biotinylated H3(1-21) peptide (New England Peptide) and run for 1 hr at RT, then quenched with 20 μL stop solution (200 mM Tris pH 8.0, 200 mM EDTA, 2M NaCl, 160 μM anacardic acid). 35 μL of the reaction volume was transferred to a 384-well streptavidin FlashPlate (PerkinElmer) using a Bravo liquid handler (Velocity 11) and incubated for 1.5 hr at RT. Plates were aspirated, washed with 95 μL wash buffer (15 mM Tris pH 8.5, 0.069 μM Brij-35), aspirated, sealed, and scintillation counts read on a Topcount (PerkinElmer). Data were analyzed in Genedata to determine inhibitor IC50 values.
(Scintillation proximity formats need no separation of bound from free tracer.)
In turn, `CC(=O)N1CC(Oc2ccc(NC(=O)C(NC[C@@H](C)c3ccc(C#N)cc3)c3ccccc3)nc2)C1` (single isomer, unassigned) [2 Isomer 2] yielded an IC50 of more than 2 µM.
In turn, `CC(CNC(C(=O)Nc1ccc(Oc2cnn(C)c2)cn1)c1ccccc1)c1ccc(C#N)cc1` (single isomer, unassigned) [17 Isomer 4] displayed a 50% inhibitory concentration (IC50) of more than 2 µM.
As to `Cc1cnc(Oc2ccc(NC(=O)C(NCCc3ccc(C#N)cc3)c3ccccc3)nc2)nc1` (single isomer, unassigned) [22 Isomer 1], the half-inhibitory concentration (IC50) is more than 2 µM.
The compound `CN1CC(Oc2ccc(NC(=O)C(NCCc3ccc(Cl)cc3)c3ccccc3)nc2)CCC1=O` (single isomer, unassigned) [10 Isomer 1] had a 50% inhibitory concentration (IC50) of 0.0942 µM.
In turn, `N#Cc1ccc(CCNC(C(=O)Nc2ccc(OC3COC3)cn2)c2ccccc2)cc1` (single isomer, unassigned) [6 Isomer 1] came in with an IC50 of 0.0399 µM.
As to `CN1CCC(Oc2ccc(NC(=O)C(NCCc3ccc(Cl)cc3)c3ccccc3)nc2)CC1` (single isomer, unassigned) [11 Isomer 1], half-maximal inhibition (IC50) was put at 0.0266 µM.
Under `CN1CCC(Oc2ccc(NC(=O)C(NCCc3ccc(C#N)cc3)c3ccccc3)nc2)C1=O` (single isomer, unassigned) [12 Isomer 4] stands more than 2 µM; under `CC(=O)N1CCC[C@H](Oc2ccc(NC(=O)C(NCCc3ccc(C#N)cc3)c3ccccc3)nc2)C1` (single isomer, unassigned) [15 Isomer 1], 0.272 µM; under `N#Cc1ccc(CCNC(C(=O)Nc2ccc(OCCN3CCOC3=O)cn2)c2ccccc2)cc1` (single isomer, unassigned) [19 Isomer 1], 0.0566 µM.
Under `CN1CCC(Oc2ccc(NC(=O)C(NCCc3ccc(C#N)cc3)c3ccccc3)nc2)C1=O` (single isomer, unassigned) [12 Isomer 2] stands 0.063 µM.
`CN1CC(Oc2ccc(NC(=O)C(NCCc3ccc(Cl)cc3)c3ccccc3)nc2)CCC1=O` (single isomer, unassigned) [10 Isomer 2]: the IC50 was more than 2 µM.
`O=C(Nc1ccc(OCCn2cccn2)cn1)C(NCCc1ccc(Cl)cc1)c1ccccc1` (single isomer, unassigned) [7 Isomer 2] gave an IC50 of 0.0985 µM.
Under `CC(=O)N1CC(Oc2ccc(NC(=O)C(NCC(C)c3ccc(C#N)cc3)c3cnn(C)c3)nc2)C1` (single isomer, unassigned) [24 Isomer 3] stands more than 2 µM.
`O=C(Nc1ccc(OCCn2cccn2)cn1)C(NCCc1ccc(Cl)cc1)c1ccccc1` (single isomer, unassigned) [7 Isomer 1] had an IC50 of more than 2 µM.
The compound `CC(=O)N1CC[C@H](Oc2ccc(NC(=O)C(NCCc3ccc(C#N)cc3)c3ccccc3)nc2)C1` (single isomer, unassigned) [13 Isomer 2] gave a 50% inhibitory concentration (IC50) of 0.0599 µM.
Under `CC(CNC(C(=O)Nc1ccc(OC2CCN(C(=O)C3CC3)CC2)cn1)c1ccccc1)c1ccc(C#N)cc1` (single isomer, unassigned) [20 Isomer 1] stands more than 2 µM; under `CC(=O)N1CC(Oc2ccc(NC(=O)C(NCC(C)c3ccc(C#N)cc3)c3cnn(C)c3)nc2)C1` (single isomer, unassigned) [24 Isomer 4], more than 2 µM; under `CC(=O)N1CC(Oc2ccc(NC(=O)C(NCC(C)c3ccc(C#N)cc3)c3cccc(F)c3)nc2)C1` (single isomer, unassigned) [23 Isomer 2], 0.965 µM.
`CC(=O)N1CCC[C@H](Oc2ccc(NC(=O)C(NCCc3ccc(C#N)cc3)c3ccccc3)nc2)C1` (single isomer, unassigned) [15 Isomer 2] came in with a concentration for half-maximal inhibition (IC50) of more than 2 µM.
As for `CC(CNC(C(=O)Nc1ccc(OC2CCN(C(=O)C3CC3)CC2)cn1)c1ccccc1)c1ccc(C#N)cc1` (single isomer, unassigned) [20 Isomer 2], the midpoint of inhibition, the IC50, lay at 0.0267 µM.
The value for `CC(CNC(C(=O)Nc1ccc(OC2CN(C(=O)OC(C)(C)C)C2)cn1)c1ccccc1)c1ccc(C#N)cc1` (single isomer, unassigned) [25 Isomer 1] was more than 1 µM.
With `N#Cc1ccc(CCNC(C(=O)Nc2ccc(O[C@@H]3CCOC3)cn2)c2ccccc2)cc1` (single isomer, unassigned) [4 Isomer 1], the midpoint of inhibition, the IC50, lay at 0.0914 µM.
With `N#Cc1ccc(CCNC(C(=O)Nc2ccc(O[C@@H]3CCOC3)cn2)c2ccccc2)cc1` (single isomer, unassigned) [4 Isomer 2], the IC50 was more than 2 µM.
Consider `CC(=O)N1CC(Oc2ccc(NC(=O)C(NCC(C)c3ccc(C#N)cc3)c3cnn(C)c3)nc2)C1` (single isomer, unassigned) [24 Isomer 2], for which the IC50 worked out at 0.578 µM.
Under `CC(=O)N1CC[C@@H](Oc2ccc(NC(=O)C(NCCc3ccc(C#N)cc3)c3ccccc3)nc2)C1` (single isomer, unassigned) [14 Isomer 2] stands more than 2 µM; under `N#Cc1ccc(CCNC(C(=O)Nc2ccc(OCCN3CCOC3=O)cn2)c2ccccc2)cc1` (single isomer, unassigned) [19 Isomer 2], more than 2 µM; under `CC(=O)N1CCC[C@@H](Oc2ccc(NC(=O)C(NCCc3ccc(C#N)cc3)c3ccccc3)nc2)C1` (single isomer, unassigned) [16 Isomer 1], 0.164 µM.
The value for `CC(=O)N1CC[C@@H](Oc2ccc(NC(=O)C(NCCc3ccc(C#N)cc3)c3ccccc3)nc2)C1` (single isomer, unassigned) [14 Isomer 1] was 0.0362 µM.
The compound `CN1CCC(Oc2ccc(NC(=O)C(NCCc3ccc(C#N)cc3)c3ccccc3)nc2)C1=O` (single isomer, unassigned) [12 Isomer 1] registered an IC50 of 0.065 µM.
In turn, `CC(CNC(C(=O)Nc1ccc(OC2CN(C(=O)C3CC3)C2)cn1)c1ccccc1)c1ccc(C#N)cc1` (single isomer, unassigned) [21 Isomer 2] registered a 50% inhibitory concentration (IC50) of more than 2 µM.
The value for `CN1CC(Oc2ccc(NC(=O)C(NCCc3ccc(Cl)cc3)c3ccccc3)nc2)CN(C)C1=O` (single isomer, unassigned) [3 Isomer 1] was more than 2 µM; that for `CN1CCC(Oc2ccc(NC(=O)C(NCCc3ccc(Cl)cc3)c3ccccc3)nc2)CC1` (single isomer, unassigned) [11 Isomer 2] was more than 2 µM; that for `CC(Oc1ccc(NC(=O)C(NCCc2ccc(C#N)cc2)c2ccccc2)nc1)c1cnn(C)c1` (single isomer, unassigned) [18 Isomer 4] was more than 2 µM.
Compound `CC(Oc1ccc(NC(=O)C(NCCc2ccc(C#N)cc2)c2ccccc2)nc1)c1cnn(C)c1` (single isomer, unassigned) [18 Isomer 3] showed an IC50 of more than 2 µM.
`CC(Oc1ccc(NC(=O)C(NCCc2ccc(C#N)cc2)c2ccccc2)nc1)c1cnn(C)c1` (single isomer, unassigned) [18 Isomer 1] had a concentration for half-maximal inhibition (IC50) of 0.311 µM.
`CC(CNC(C(=O)Nc1ccc(Oc2cnn(C)c2)cn1)c1ccccc1)c1ccc(C#N)cc1` (single isomer, unassigned) [17 Isomer 2]: the IC50 is more than 2 µM.
For `CN1CCC(Oc2ccc(NC(=O)C(NCCc3ccc(C#N)cc3)c3ccccc3)nc2)C1=O` (single isomer, unassigned) [12 Isomer 3], the concentration for half-maximal inhibition (IC50) was more than 2 µM.
Under `CC(Oc1ccc(NC(=O)C(NCCc2ccc(C#N)cc2)c2ccccc2)nc1)c1cnn(C)c1` (single isomer, unassigned) [18 Isomer 2] stands 0.209 µM; under `CC(=O)N1CC[C@H](Oc2ccc(NC(=O)C(NCCc3ccc(C#N)cc3)c3ccccc3)nc2)C1` (single isomer, unassigned) [13 Isomer 1], more than 2 µM.
Under `CN1CC(Oc2ccc(NC(=O)C(NCCc3ccc(Cl)cc3)c3ccccc3)nc2)CN(C)C1=O` (single isomer, unassigned) [3 Isomer 2] stands 0.117 µM; under `CC(CNC(C(=O)Nc1ccc(Oc2cnn(C)c2)cn1)c1ccccc1)c1ccc(C#N)cc1` (single isomer, unassigned) [17 Isomer 1], 0.0337 µM; under `CN1CC(Oc2ccc(NC(=O)C(NCCc3ccc(Cl)cc3)c3ccccc3)nc2)CCC1=O` (single isomer, unassigned) [10 Isomer 4], more than 2 µM.

For orientation: IC50 means the point on the concentration scale where inhibition reaches its midpoint.

Values taken from patent publication US20220135538A1, “P300/CBP HAT INHIBITORS AND METHODS FOR THEIR USE” (Constellation Pharmaceuticals, Inc., priority 2019, published 2022).
